How the values were obtained:
[1] = system: Small Brown Planthopper (Laodelphax Striatellus); test: Test of insecticidal efficacy against small brown planthopper (Test Example 2); type: in vivo; settings: 500 ppm, rice plants soaked 30 seconds, third-instar larvae, eight days after inoculation; criteria same as in Test Example 1
Excerpt: Test of Insecticidal Efficacy Against Small Brown Planthopper (Laodelphax Striatellus)

[2] = system: Green Peach Aphid (Myzus Persicae); test: Test of preventive value against green peach aphid (Test Example 1); type: in vivo; settings: 500 ppm, sprayed over stems and leaves of potted Chinese cabbages, sixth day after spraying
Description: Test of Preventive Value Against Green Peach Aphid (Myzus Persicae)
Chinese cabbages were planted in plastic pots, each with a size of 8 cm in diameter and 8 cm in height, after which green peach aphids were propagated and the number of parasitic insects was examined in each pot. An oxazepine compound or salt thereof expressed by General Formula (I) according to the present invention was dispersed in water and the dispersion was diluted to 500 ppm in the form of a reagent, after which the reagent was sprayed over stems and leaves of potted Chinese cabbages and let dry under wind, and the pots were kept in a greenhouse, and on the sixth day after the reagent was sprayed, the number of green peach aphids living parasitically on each Chinese cabbage was examined and the preventive value was calculated based on the formula below, and judgment was made according to the criteria below. Preventive value=100−{(T×Ca)/(Ta×C)}×100 [Mathematical Formula 1] • Ta: Number of parasitic insects inside the treatment area before spraying • T: Number of parasitic insects inside the treatment area after spraying • Ca: Number of parasitic insects inside the non-treatment area before spraying • C: Number of parasitic insects inside the non-treatment area after spraying Judgment Criteria • A - - - Preventive value: 100% • B - - - Preventive value: 99%˜90% • C - - - Preventive value: 89%˜80% • D - - - Preventive value: 79%˜50%

Structure (SMILES)	Corrected insect mortality, judgment [1]	Preventive value, judgment [2]
C#CCN1C(=O)c2nn(-c3cccnc3)cc2Oc2cc(Cl)ccc21 [1-28]	A to D	A to D
O=C1c2nn(-c3cccnc3)cc2Oc2ccccc2N1CCN1CCCCC1 [1-70]	A to D	A to D
CC(C(=O)OC(C)(C)C)N1C(=O)c2nn(-c3cccnc3)cc2Oc2cc(F)ccc21 (stereo not shown) [8-32]	A to D	A to D
C#CCN1C(=O)c2nn(-c3cccnc3)cc2Oc2cc(F)ccc21 [1-12]	A to D	A to D
O=C1Nc2cc(Br)ccc2Oc2cn(-c3cccnc3)nc21 [8-62]	A to D	A to D
CS(=O)(=O)CN1C(=O)c2nn(-c3cccnc3)cc2Oc2ccccc21 [8-4]	A to D	A to D
Cc1ccc2c(c1)Oc1cn(-c3cccnc3)nc1C(=O)N2CC#N [1-33]	A to D	A to D
S=C1Nc2ccccc2Oc2cn(-c3cccnc3)nc21 [2-1]	A to D	A to D
C#CCN1C(=O)c2nn(-c3cccnc3)cc2Oc2ccc(F)cc21 [1-16]	A to D	A to D
O=C1c2nn(-c3cccnc3)cc2Oc2ccccc2N1CC(F)(F)F [1-5]	A to D	A to D
O=C1OCCC1N1C(=O)c2nn(-c3cccnc3)cc2Oc2cc(F)ccc21 (stereo not shown) [8-31]	A to D	A to D
COC(=O)CN1C(=O)c2nn(-c3cccnc3)cc2Oc2ccccc21 [1-74]	A to D	A to D
C=CCN1C(=O)c2nn(-c3cccnc3)cc2Oc2ccccc21 [1-55]	A to D	A to D
COCN1C(=O)c2nn(-c3cccnc3)cc2Oc2cc(F)ccc21 [8-25]	A to D	A to D
O=C1Nc2cccc(F)c2Oc2cn(-c3cccnc3)nc21 [1-6]	A to D	A to D
CN1C(=S)c2nn(-c3cccnc3)cc2Oc2ccccc21 [Compound No. 2-2, 9-methyl-2-(pyridine-3-yl)-2H-benzo [b]pyrazolo [3,4-f][1,4]oxazepine-10 (9H)-thione]	A to D	A to D
Fc1ccc2c(c1)NCc1nn(-c3cccnc3)cc1O2 [Compound No. 3-6, 7-fluoro-2-(pyridine-3-yl)-9,10-dihydro-2H-benzo [b]pyrazolo [3,4-f][1,4]oxazepine]	A to D	A to D
COc1ccc(CN2C(=O)c3nn(-c4cccnc4)cc3Oc3ccccc32)cc1 [1-56]	A to D	A to D
N#CCN1C(=O)c2nn(-c3cccnc3)cc2Oc2c(F)cccc21 [1-9]	A to D	A to D
CN1C(=O)c2nn(-c3cccnc3)cc2Oc2cc(F)ccc21 [Compound No. 1-11, 6-fluoro-9-methyl-2-(pyridine-3-yl)-2H-benzo [b]pyrazolo [3,4-f][1,4]oxazepine-10 (9H)-one]	A to D	A to D
CN1C(=O)c2nn(-c3cccnc3)cc2Oc2ccc(C(F)(F)F)cc21 [1-38]	A to D	A to D
C#CCN1C(=O)c2nn(-c3cccnc3)cc2Oc2c(F)cccc21 [1-8]	A to D	A to D
N#CCN1C(=O)c2nn(-c3cccnc3)cc2Oc2ccccc21 [1-4]	A to D	A to D
N#Cc1ccc2c(c1)NC(=O)c1nn(-c3cccnc3)cc1O2 [1-50]	A to D	A to D
CN(C)C1=Nc2ccccc2Oc2cn(-c3cccnc3)nc21 [11-10]	A to D	A to D

Structure (SMILES)	Corrected insect mortality, judgment [1]	Preventive value, judgment [2]
CSC1=Nc2cc(F)ccc2Oc2cn(-c3cccnc3)nc21 [11-18]	A to D	A to D
CCOCN1C(=O)c2nn(-c3cccnc3)cc2Oc2ccc(F)cc21 [8-46]	A to D	A to D
CN1C(=O)c2nn(-c3cccnc3)cc2Oc2ccccc21 [Compound No. 1-2, 9-methyl-2-(pyridine-3-yl)-2H-benzo [b]pyrazolo [3,4-f][1,4]oxazepine-10 (9H)-one]	A to D	A to D
COC(CN1C(=O)c2nn(-c3cccnc3)cc2Oc2ccc(F)cc21)OC [8-42]	A to D	A to D
O=C1Nc2cc(C(F)(F)F)ccc2Oc2cn(-c3cccnc3)nc21 [1-37]	A to D	A to D
O=C1c2nn(-c3cccnc3)cc2Oc2ccc(F)cc2N1CC1CCCO1 (stereo not shown) [8-41]	A to D	A to D
CN1C(=O)c2nn(-c3cccnc3)cc2Oc2ncc(C(F)(F)F)cc21 [4-10]	A to D	A to D
O=C1c2nn(-c3cccnc3)cc2Oc2ccccc2N1CCN1CCOCC1 [1-71]	A to D	A to D
O=C1c2nn(-c3cccnc3)cc2Oc2ccccc2N1Cc1cccnc1 [1-58]	A to D	A to D
CCCCCCCCN1C(=O)c2nn(-c3cccnc3)cc2Oc2ccccc21 [1-53]	A to D	A to D
CCCCCCN1C(=O)c2nn(-c3cccnc3)cc2Oc2ccccc21 [1-52]	A to D	A to D
N#CCN1C(=O)c2nn(-c3cccnc3)cc2Oc2cc(C(F)(F)F)ccc21 [1-36]	A to D	A to D
CCCCN1C(=O)c2nn(-c3cccnc3)cc2Oc2ccccc21 [1-51]	A to D	A to D
CCOCN1C(=O)c2nn(-c3cccnc3)cc2Oc2cc(F)ccc21 [8-26]	A to D	A to D
COCN1C(=O)c2nn(-c3cccnc3)cc2Oc2ccc(F)cc21 [8-45]	A to D	A to D
CSCCOC1=Nc2ccc(C(F)(C(F)(F)F)C(F)(F)F)cc2Oc2cn(-c3cccnc3)nc21 [11-17]	A to D	A to D
CN1C(=O)c2nn(-c3cccnc3)cc2Oc2cc(C(F)(F)F)ccc21 [1-34]	A to D	A to D
Cc1ccc2c(c1)Oc1cn(-c3cccnc3)nc1C(=O)N2 [1-30]	A to D	A to D
c1cncc(-n2cc3c(n2)C(NC2CC2)=Nc2ccccc2O3)c1 [11-7]	A to D	A to D
CSCN1C(=O)c2nn(-c3cccnc3)cc2Oc2cc(F)ccc21 [8-24]	A to D	A to D
O=CN1C(=O)c2nn(-c3cccnc3)cc2Oc2ccccc21 [8-12]	A to D	A to D
C=CCN(CC=C)C1=Nc2cc(F)ccc2Oc2cn(-c3cccnc3)nc21 [11-11]	A to D	A to D
CN1C(=O)c2nn(-c3cncnc3)cc2Oc2ccccc21 [1-79]	A to D	A to D
C#CCN1C(=O)c2nn(-c3cccnc3)cc2Oc2ccccc21 [1-3]	A to D	A to D
O=C1NC=COc2cn(-c3cccnc3)nc21 [7-1]	A to D	A to D
